Test results: ChEMBL document CHEMBL4304773, “Nitroimidazole-containing compounds and their antibacterial and antitubercular activities” (2019)
Values after ≈ are worked out from the molar mass of the structure shown.

Experiments:
Type in all cases: functional
[1] = tested on: Clostridioides difficile; assay: Antibacterial activity against Clostridium difficile R20291 assessed as zone of inhibition at 2.5 ug/disc after 24 hrs; details: read-out: IZ
[2] = tested on: Clostridioides difficile; assay: Antibacterial activity against Clostridium difficile ATCC 43603 assessed as zone of inhibition at 2.5 ug/disc after 24 hrs; details: ATCC 43603, 24 h, read-out: IZ
[3] = tested on: Clostridioides difficile; assay: Antibacterial activity against Clostridium difficile 630 assessed as zone of inhibition at 2.5 ug/disc after 24 hrs; details: Clostridioides difficile, 630, 24 h; read-out: IZ
[4] = tested on: Staphylococcus aureus; assay: Antibacterial activity against Staphylococcus aureus ATCC 6538 after 18 hrs by two fold serial dilution; details: ATCC 6538, 18 h
[5] = tested on: Bacillus subtilis; assay: Antibacterial activity against Bacillus subtilis PTCC 1023 after 18 hrs by two fold serial dilution; details: PTCC 1023, 18 h
[6] = tested on: Klebsiella pneumoniae; assay: Antibacterial activity against Klebsiella pneumoniae ATCC 10031 after 18 hrs by two fold serial dilution; details: ATCC 10031, 18 h
[7] = tested on: Escherichia coli; assay: Antibacterial activity against Escherichia coli ATCC 8739 after 18 hrs by two fold serial dilution; details: ATCC 8739, 18 h
[8] = tested on: Klebsiella aerogenes; assay: Antibacterial activity against Enterobacter aerogenes PTCC 1221 after 18 hrs by two fold serial dilution; details: PTCC 1221, 18 h
[9] = tested on: Escherichia coli; assay: Antibacterial activity against Escherichia coli
[10] = tested on: Pseudomonas aeruginosa; assay: Antibacterial activity against Pseudomonas aeruginosa
[11] = tested on: Klebsiella aerogenes; assay: Antibacterial activity against Klebsiella aerogenes
[12] = tested on: Enterococcus faecalis; assay: Antibacterial activity against Enterococcus faecalis
[13] = tested on: Staphylococcus aureus; assay: Antibacterial activity against Staphylococcus aureus ATCC 25923
[14] = tested on: Staphylococcus aureus; assay: Antibacterial activity against Staphylococcus aureus ATCC 29213
[15] = tested on: Staphylococcus aureus; assay: Antibacterial activity against methicillin-resistant Staphylococcus aureus N315
[16] = tested on: Pseudomonas aeruginosa; assay: Antibacterial activity against Pseudomonas aeruginosa ATCC 27853
[17] = tested on: Acinetobacter baumannii; assay: Antibacterial activity against Acinetobacter baumannii
[18] = tested on: Escherichia coli; assay: Antibacterial activity against Escherichia coli ATCC 25922
[19] = tested on: Klebsiella pneumoniae; assay: Antibacterial activity against Klebsiella pneumoniae
[20] = tested on: Staphylococcus epidermidis; assay: Antibacterial activity against Staphylococcus epidermidis ATCC 12228 after 18 hrs by two fold serial dilution; details: ATCC 12228, 18 h
[21] = tested on: Staphylococcus aureus; assay: Antibacterial activity against Staphylococcus aureus
[22] = tested on: Streptococcus pyogenes; assay: Antibacterial activity against Streptococcus pyogenes

| MIC [4] [µg/mL] | MIC [5] [µg/mL] | MIC [6] [µg/mL] | MIC [7] [µg/mL] | MIC [8] [µg/mL] | MIC [21] [µM] | MIC [22] [µM] | Compound | other results |
| --- | --- | --- | --- | --- | --- | --- | --- | --- |
| 4 to 32 (≈ 11.4 to 91.6 µM) | > 64 | > 64 | > 64 | > 64 | – | – | COc1ccc(-c2nnc(Sc3c([N+](=O)[O-])ncn3C)s2)cc1 | – |
| 4 to 32 (≈ 10.9 to 86.9 µM) | > 64 | > 64 | > 64 | > 64 | – | – | Cn1cnc([N+](=O)[O-])c1Sc1nnc(-c2ncc([N+](=O)[O-])n2C)s1 | – |
| 4 to 32 (≈ 13.3 to 107 µM) | > 64 | > 64 | > 64 | > 64 | – | – | CC(=O)Nc1nnc(Sc2c([N+](=O)[O-])ncn2C)s1 | – |
| 2 to 64 (≈ 5.18 to 166 µM) | 2 to 64 (≈ 5.18 to 166 µM) | 2 to 64 (≈ 5.18 to 166 µM) | 2 to 64 (≈ 5.18 to 166 µM) | – | – | – | Cn1cnc([N+](=O)[O-])c1S(=O)(=O)c1nnc(-c2ccc([N+](=O)[O-])o2)s1 | MIC [20]: 2 to 64 µg/mL (≈ 5.18 to 166 µM) |

The remaining lines, values behind:

| Compound | MIC [4] [µg/mL] | MIC [5] [µg/mL] | MIC [6] [µg/mL] | MIC [7] [µg/mL] | MIC [8] [µg/mL] | MIC [21] [µM] | MIC [22] [µM] | other results |
| --- | --- | --- | --- | --- | --- | --- | --- | --- |
| C/C=C/c1nc(CS(=O)(=O)c2ccccc2)c([N+](=O)[O-])n1C | – | – | – | – | – | – | – | zone of inhibition at 2.5 µg/disc [1]: 13.5 to 24.5 mm; zone of inhibition at 2.5 µg/disc [2]: 13.5 to 24.5 mm; zone of inhibition at 2.5 µg/disc [3]: 13.5 to 24.5 mm |
| CCCCCCCCCCN1CCN(c2ccc3c4c(cccc24)C(=O)N(CC(O)Cn2c([N+](=O)[O-])cnc2C)C3=O)CC1 (configuration not stated) | – | – | – | – | – | – | – | MIC [9]: 13 to 210 µM (≈ 7.86 to 127 µg/mL); MIC [10]: 13 to 210 µM (≈ 7.86 to 127 µg/mL); MIC [11]: 13 µM (≈ 7.86 µg/mL); MIC [12]: 13 to 210 µM (≈ 7.86 to 127 µg/mL); MIC [13]: 13 to 210 µM (≈ 7.86 to 127 µg/mL); MIC [14]: 13 to 210 µM (≈ 7.86 to 127 µg/mL); MIC [15]: 13 to 210 µM (≈ 7.86 to 127 µg/mL); MIC [16]: 13 to 210 µM (≈ 7.86 to 127 µg/mL); MIC [17]: 13 to 210 µM (≈ 7.86 to 127 µg/mL); MIC [18]: 13 to 210 µM (≈ 7.86 to 127 µg/mL); MIC [19]: 13 to 210 µM (≈ 7.86 to 127 µg/mL) |
| CCN1CCN(Cn2nc(Cn3cc([N+](=O)[O-])nc3C)oc2=S)CC1 | – | – | – | – | – | 184 to 2890 (≈ 67.6 to 1060 µg/mL) | 184 to 2890 (≈ 67.6 to 1060 µg/mL) | – |
| Cc1nc([N+](=O)[O-])cn1Cc1nn(CNc2ccc(-c3ccccc3)cc2)c(=S)o1 | – | – | – | – | – | 184 to 2890 (≈ 77.7 to 1220 µg/mL) | 184 to 2890 (≈ 77.7 to 1220 µg/mL) | – |
| Cc1cc([N+](=O)[O-])ccc1NCn1nc(Cn2cc([N+](=O)[O-])nc2C)oc1=S | – | – | – | – | – | 184 to 2890 (≈ 74.6 to 1170 µg/mL) | 184 to 2890 (≈ 74.6 to 1170 µg/mL) | – |
| Cc1nc([N+](=O)[O-])cn1Cc1nn(CNc2ccc(Cl)cc2)c(=S)o1 | – | – | – | – | – | 184 to 2890 (≈ 70.1 to 1100 µg/mL) | 184 to 2890 (≈ 70.1 to 1100 µg/mL) | – |
